Experimental data reported in patent US20260297080A1, “BICYCLIC COMPOUNDS AS CDK INHIBITORS” (BeOne Medicines I GmbH, priority 2022, published 2026).

Legend:
CDK1/Cyclin B1 [1] = biological target: T1, CDK1/Cyclin B1 (Homo sapiens, UniProt P06493); experiment: CDK1/Cyclin B1 Biochemical Assay (TR-FRET), 1 mM ATP; details: 0.15 μM Rb (Ser780)-biotin substrate, pH7.0, 60 min preincubation, 90 min reaction, room temperature
Procedure: (§1) CDK2/Cyclin E1 and CDK1/Cyclin B1 Biochemical Assays
(§2) Compounds disclosed herein were tested for inhibition of CDK2/Cyclin E1 or CDK1/Cyclin B1 kinase in an assay based on the time-resolved fluorescence-resonance energy transfer (TR-FRET) methodology. The assay was carried out in 384-well low volume black plates in a reaction mixture containing CDK2/Cyclin E1 or CDK1/Cyclin B1, 1 mM ATP for CDK2/Cyclin E1 and CDK1/Cyclin B1, 0.15 μM Rb (Ser780)-biotin substrate and 0-10 μM compound in buffer containing 50 mM HEPES pH7.0, 0.02% NaN3, 0.01% BSA, 0.1 mM Orthovanadate, 50 mM MgCl2, 1 mM DTT and 0.005% Tween-20. The kinase was incubated with compound for 60 minutes at room temperature and the reaction was initiated by the addition of ATP and Rb (Ser780)-biotin substrate. After reaction at room temperature for 90 minutes, an equal volume of stop/detection solution was added according to the manufacture's instruction (Cisbio Bioassays). The stop/detection solution contained Streptavidin-XL665 and Anti-pRb (Ser780) mAb-Eu Cryptate in Detection buffer (Cisbio Bioassays). Plates were incubated at room temperature for 60 minutes, and the TR-FRET signals (ex337 nm, em665 nm/620 nm) were recorded on a PHERAstar FSX plate reader (BMG Labtech). The inhibition percentage of CDK2/Cyclin E1 or CDK1/Cyclin B1 kinase activity in presence of increasing concentrations of compounds was calculated based on the ratio of fluorescence at 665 nm to that at 620 nm. The IC50 for each compound was derived from fitting the data to the four-parameter logistic equation by Dotmatics.

CDK2/Cyclin E1 [2] = biological target: T2, CDK2/Cyclin E1 (Homo sapiens, UniProt P24941); experiment: CDK2/Cyclin E1 Biochemical Assay (TR-FRET), 1 mM ATP; details: 0.15 μM Rb (Ser780)-biotin substrate, pH7.0, 60 min preincubation, 90 min reaction, room temperature
Procedure: as §1, §2

CDK1/Cyclin B1 [3] = biological target: T1, CDK1/Cyclin B1; experiment: CDK1/Cyclin B1 Biochemical Assay (TR-FRET), 0.015 mM ATP; details: 0.15 μM Rb (Ser780)-biotin substrate, pH7.0, 60 min preincubation, 120 min reaction, room temperature
How it was run: (§3)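 Enzyme + cpd (0–10 μM), 60 min RT; add ATP + 0.15 μM Rb(Ser780)-biotin, 120 min RT; 50 mM HEPES pH 7.0, 50 mM MgCl2, 1 mM DTT, 0.1 mM orthovanadate. Stop/detect with Eu anti-pRb + SA-XL665, 60 min; ratio 665/620 nm; IC50 by 4PL fit.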

CDK2/Cyclin E1 [4] = biological target: T2, CDK2/Cyclin E1; experiment: CDK2/Cyclin E1 Biochemical Assay (TR-FRET), 0.060 mM ATP; details: 0.15 μM Rb (Ser780)-biotin substrate, pH7.0, 60 min preincubation, 120 min reaction, room temperature
How it was run: as §3

T1 sequence (P06493 whole entry): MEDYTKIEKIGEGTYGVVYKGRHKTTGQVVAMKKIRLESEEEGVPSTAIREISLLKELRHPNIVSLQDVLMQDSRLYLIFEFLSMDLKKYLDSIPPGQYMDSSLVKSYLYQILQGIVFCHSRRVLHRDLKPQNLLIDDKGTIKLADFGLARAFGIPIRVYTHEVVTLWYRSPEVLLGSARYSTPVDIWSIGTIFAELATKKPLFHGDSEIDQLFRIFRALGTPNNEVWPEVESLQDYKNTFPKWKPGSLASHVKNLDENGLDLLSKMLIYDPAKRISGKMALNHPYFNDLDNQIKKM
T1 sequence (P14635 whole entry partner): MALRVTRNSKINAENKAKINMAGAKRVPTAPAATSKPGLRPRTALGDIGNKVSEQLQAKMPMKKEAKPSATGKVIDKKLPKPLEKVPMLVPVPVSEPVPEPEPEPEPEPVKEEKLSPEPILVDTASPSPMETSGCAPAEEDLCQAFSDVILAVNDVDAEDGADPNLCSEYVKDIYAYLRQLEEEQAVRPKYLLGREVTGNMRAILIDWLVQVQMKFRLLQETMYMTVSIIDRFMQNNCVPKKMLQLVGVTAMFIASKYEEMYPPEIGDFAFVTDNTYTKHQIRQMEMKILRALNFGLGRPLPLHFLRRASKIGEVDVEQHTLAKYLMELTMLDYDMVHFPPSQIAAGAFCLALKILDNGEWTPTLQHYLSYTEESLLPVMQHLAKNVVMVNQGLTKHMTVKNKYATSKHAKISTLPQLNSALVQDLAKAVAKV

SMILES	IC50 (CDK1/Cyclin B1 [1])	IC50 (CDK2/Cyclin E1 [2])	IC50 (CDK1/Cyclin B1 [3])	IC50 (CDK2/Cyclin E1 [4])
O=C(NCC1CC1)O[C@H]1CC[C@@H](c2cc(Nc3cc4c(cc3F)S(=O)(=O)NC4)n[nH]2)C1 (relative stereo) [Example 420, cis-3-(3-((6-fluoro-1,1-dioxido-2,3-dihydrobenzo[d]isothiazol-5-yl)amino)-1H-pyrazol-5-yl)cyclopentyl(cyclopropylmethyl)carbamate]	5510 nM	24 nM	–	–
CCNC(=O)O[C@H]1CC[C@@H](c2cc(Nc3cc4c(cc3F)S(=O)(=O)NC4)n[nH]2)C1 (relative stereo) [Example 421, cis-3-(3-((6-fluoro-1,1-dioxido-2,3-dihydrobenzo[d]isothiazol-5-yl)amino)-1H-pyrazol-5-yl)cyclopentyl ethylcarbamate]	> 10000 nM	135 nM	–	–
CC(C)(C)NC(=O)O[C@H]1CC[C@@H](c2cc(Nc3ccc4c(c3F)CS(=O)(=O)N4)n[nH]2)C1 (relative stereo) [Example 423, cis-3-(3-((4-fluoro-2,2-dioxido-1,3-dihydrobenzo[c]isothiazol-5-yl)amino)-1H-pyrazol-5-yl)cyclopentyl tert-butylcarbamate]	252 nM	2.7 nM	–	–
CN1c2ccc(Nc3cc([C@@H]4CC[C@H](OC(=O)NC5CCOC5)C4)[nH]n3)cc2CS1(=O)=O (relative stereo) [Example 424, cis-3-(3-((1-methyl-2,2-dioxido-1,3-dihydrobenzo[c]isothiazol-5-yl)amino)-1H-pyrazol-5-yl)cyclopentyl(tetrahydrofuran-3-yl)carbamate]	> 10000 nM	84 nM	–	–
CC(C)NC(=O)O[C@H]1CC[C@@H](c2cc(Nc3cc4c(cn3)S(=O)(=O)NC4)n[nH]2)C1 (relative stereo) [Example 425, cis-3-(3-((1,1-dioxido-2,3-dihydroisothiazolo[5,4-c]pyridin-5-yl)amino)-1H-pyrazol-5-yl)cyclopentyl isopropylcarbamate]	> 10000 nM	1950 nM	–	–
CN1c2ccc(Nc3cc([C@@H]4CC[C@H](OC(=O)NCC5(O)CC5)C4)[nH]n3)cc2CS1(=O)=O (relative stereo) [Example 426, cis-3-(3-((1-methyl-2,2-dioxido-1,3-dihydrobenzo[c]isothiazol-5-yl)amino)-1H-pyrazol-5-yl)cyclopentyl((1-hydroxycyclopropyl)methyl)carbamate]	4870 nM	51 nM	–	–
O=C(NC1CCOC1)O[C@H]1CC[C@@H](c2cc(Nc3ccc4c(c3F)CS(=O)(=O)N4C3CC3)n[nH]2)C1 (relative stereo) [Example 429, cis-3-(3-((1-cyclopropyl-4-fluoro-2,2-dioxido-1,3-dihydrobenzo[c]isothiazol-5-yl)amino)-1H-pyrazol-5-yl)cyclopentyl(tetrahydrofuran-3-yl)carbamate]	> 10000 nM	133 nM	–	–
CCC(=O)CNC(=O)O[C@H]1CC[C@@H](c2cc(Nc3ccc4c(c3F)CS(=O)(=O)N4)n[nH]2)C1 (relative stereo) [Example 432, cis-3-(3-((4-fluoro-2,2-dioxido-1,3-dihydrobenzo[c]isothiazol-5-yl)amino)-1H-pyrazol-5-yl)cyclopentyl(2-oxobutyl)carbamate]	1320 nM	23 nM	–	–
CC(C)(O)CN1c2ccc(Nc3cc([C@@H]4CC[C@H](OC(=O)NC5(C)CC5)C4)[nH]n3)c(F)c2CS1(=O)=O (relative stereo) [Example 435, cis-3-(3-((4-fluoro-1-(2-hydroxy-2-methylpropyl)-2,2-dioxido-1,3-dihydrobenzo[c]isothiazol-5-yl)amino)-1H-pyrazol-5-yl)cyclopentyl(1-methylcyclopropyl)carbamate]	423 nM	1.3 nM	–	–
CC1(C)CCCN1C(=O)O[C@H]1CC[C@@H](c2cc(Nc3ccc4c(c3F)CS(=O)(=O)N4)n[nH]2)C1 (relative stereo) [Example 436, cis-3-(3-((4-fluoro-2,2-dioxido-1,3-dihydrobenzo[c]isothiazol-5-yl)amino)-1H-pyrazol-5-yl)cyclopentyl 2,2-dimethylpyrrolidine-1-carboxylate]	122 nM	1.5 nM	–	–
O=C(NCCC(F)(F)F)O[C@H]1CC[C@@H](c2cc(Nc3ccc4c(c3F)CS(=O)(=O)N4)n[nH]2)C1 (relative stereo) [Example 438, cis-3-(3-((4-fluoro-2,2-dioxido-1,3-dihydrobenzo[c]isothiazol-5-yl)amino)-1H-pyrazol-5-yl)cyclopentyl(3,3,3-trifluoropropyl)carbamate]	583 nM	4.7 nM	–	–

Continued, values first:

IC50 (CDK1/Cyclin B1 [1])	IC50 (CDK2/Cyclin E1 [2])	IC50 (CDK1/Cyclin B1 [3])	IC50 (CDK2/Cyclin E1 [4])	SMILES
4850 nM	21 nM	–	–	O=C(NC1CCOC1)O[C@H]1CC[C@@H](c2cc(Nc3ccc4c(c3)CS(=O)(=O)N4)n[nH]2)C1 (relative stereo) [Example 428, cis-3-(3-((2,2-dioxido-1,3-dihydrobenzo[c]isothiazol-5-yl)amino)-1H-pyrazol-5-yl)cyclopentyl(tetrahydrofuran-3-yl)carbamate]
> 10000 nM	42 nM	–	–	O=C(NC1CCOC1)O[C@H]1CC[C@@H](c2cc(Nc3ccc4c(c3F)CS(=O)(=O)N4)n[nH]2)C1 (relative stereo) [Example 431, cis-3-(3-((4-fluoro-2,2-dioxido-1,3-dihydrobenzo[c]isothiazol-5-yl)amino)-1H-pyrazol-5-yl)cyclopentyl(tetrahydrofuran-3-yl)carbamate]
747 nM	1.7 nM	–	–	CC[C@H](C)NC(=O)O[C@H]1CC[C@@H](c2cc(Nc3ccc4c(c3F)CS(=O)(=O)N4CC(C)(C)O)n[nH]2)C1 (relative stereo) [Example 434, cis-3-(3-((4-fluoro-1-(2-hydroxy-2-methylpropyl)-2,2-dioxido-1,3-dihydrobenzo[c]isothiazol-5-yl)amino)-1H-pyrazol-5-yl)cyclopentyl((S)-sec-butyl)carbamate]
> 10000 nM	249 nM	–	–	CN(C(=O)O[C@H]1CC[C@@H](c2cc(Nc3ccc4c(c3F)CNS4(=O)=O)n[nH]2)C1)C1CCOC1 (relative stereo) [Example 437, cis-3-(3-((4-fluoro-1,1-dioxido-2,3-dihydrobenzo[d]isothiazol-5-yl)amino)-1H-pyrazol-5-yl)cyclopentyl methyl(tetrahydrofuran-3-yl)carbamate]
–	–	458 nM	14 nM	CC(C)(C)NC(=O)O[C@H]1CC[C@@H](c2cc(Nc3cc4c(cc3F)NS(=O)(=O)C4)n[nH]2)C1 [Example 404b]
–	–	884 nM	27 nM	CC[C@H](C)NC(=O)O[C@H]1C[C@@H](c2cc(Nc3cc4c(cc3F)S(=O)(=O)NC4)n[nH]2)C1 [Example 410, (1s,3R)-3-(3-((6-fluoro-1,1-dioxido-2,3-dihydrobenzo[d]isothiazol-5-yl)amino)-1H-pyrazol-5-yl)cyclobutyl((S)-sec-butyl)carbamate]
–	–	386 nM	9.4 nM	CC1(NC(=O)O[C@H]2C[C@@H](c3cc(Nc4cc5c(cc4F)S(=O)(=O)NC5)n[nH]3)C2)CC1 [Example 411, (1s,3s)-3-(3-((6-fluoro-1,1-dioxido-2,3-dihydrobenzo[d]isothiazol-5-yl)amino)-1H-pyrazol-5-yl)cyclobutyl(1-methylcyclopropyl)carbamate]
